Reference: patent US8202887B2, “2-(substituted-amino)-benzothiazole sulfonamide HIV protease inhibitors” (Janssen R&D Ireland, priority 2006, dated 2012)

What was measured:
[1] = test system: clinically isolated HIV strain C; assay: Cellular anti-viral assay in MT4-LTR-EGFP cells, mutant strain C; assay type: cell-based; details: Human immunodeficiency virus 1, 72 h, read-out: pEC50 virus strain C (converted)
Procedure: (§1) Because of the increasing emergence of drug resistant HIV strains, the present compounds were tested for their potency against clinically isolated HIV strains harboring several mutations. These mutations are associated with resistance to protease inhibitors and result in viruses that show various degrees of phenotypic cross-resistance to the currently commercially available drugs such as for instance saquinavir, ritonavir, nelfinavir, indinavir and amprenavir. The viral strains coded as A, B, C and D contain mutations as indicated below in Table 2.
(§2) The cellular assay was performed according to the following procedure. HIV- or mock-infected MT4-LTR-EGFP cells were incubated for three days in the presence of various concentrations of the compounds according to the invention. Upon infection, the viral tat protein activates the GFP reporter. At the end of the incubation period, the GFP signal was measured. In the virus control samples (in the absence of any inhibitor) the maximal fluorescent signal was obtained. The inhibitory activity of the compound was monitored on the virus-infected cells and was expressed as EC50. These values represent the amount of the compound required to protect 50% of the cells from virus infection. (Table 3).

[2] = Plasma exposure (AUC) in single-dose, dose-escalating dog study; assay type: in vivo, Beagle dogs; details: beagle
Procedure: Studies were carried out to test for the occurrence of erythema and edema in dogs. The compound having structural formula (II) was orally administered to Beagle dogs in an appropriate formulation as a single-dose, dose-escalating study design. In order to achieve high systemic exposures, a so-called booster compound was co-administered (ritonavir, RTV). Blood samples were taken at regular time points following the dosing. Clinical signs were recorded at least once daily for the treatment period and follow up (for at least 24 hours). Symptoms were graded on a […], with 0 being absence of symptoms, 1 mild, 2, moderate, 3 severe, 4 very severe. Special attention was paid to the occurrence of erythema and edema. The concentration of the compound having formula (II) in dog plasma was determined using a LC-MS/MS method. Raw data were used to calculate standard pharmacokinetic parameters (e.g. AUC) as a measure of systemic exposure. The systemic exposure for the compound having formula (II) was compared to the exposure of a reference compound having structural formula (III), in similar single-dose experiments in dogs, in the absence of a booster (ritonavir).

[3] = Pharmacokinetics of compound II and boosting effect of ritonavir in fed male beagle dogs; assay type: in vivo; details: for AUC(0-inf) / Cmax: male, beagle, dog, plasma, po
Procedure: Pharmacokinetics of Compound II and Boosting Effect of Ritonavir in Fed Male Beagle Dogs after Single Oral Administration of Compound II at 10 or 40 mg/kg.
The present study was performed to study the plasma pharmacokinetics of compound II in male beagle dogs after single oral administration doses of 10 and 40 mg/kg, and to evaluate the potential boosting effect of ritonavir, dosed at 10 mg/kg twice daily, on the bioavailability of compound II.
Beagle dogs (7-11 kg body weight) were dosed after feeding. Both compound II and ritonavir were given by gavage of an oral solution. All animals first received compound II alone, and after a washout of one week, the combination of ritonavir and compound II in the morning. Ritonavir dosing was repeated in the evening and on the next day's morning. Plasma was sampled to measure compound II and ritonavir concentrations until 32 hours after dosing of compound II.

Beagle dogs [4] = assay: Hypersensitivity testing: erythema and edema in dogs, single dose; assay type: in vivo; details: for induction of erythema and/or edema: single dose experiments in dogs, summary in words
Procedure: Studies were carried out to test for the occurrence of erythema and edema in dogs. The compound having structural formula (II) was orally administered to Beagle dogs in an appropriate formulation as a single-dose, dose-escalating study design. In order to achieve high systemic exposures, a so-called booster compound was co-administered (ritonavir, RTV). Blood samples were taken at regular time points following the dosing. Clinical signs were recorded at least once daily for the treatment period and follow up (for at least 24 hours). Symptoms were graded on a […], with 0 being absence of symptoms, 1 mild, 2, moderate, 3 severe, 4 very severe. Special attention was paid to the occurrence of erythema and edema.

Beagle dogs [5] = assay: 28 day / 1-month toxicology study in beagle dogs; assay type: in vivo; details: for erythema and edema after oral administration: summary of toxicology studies up to 1 month in duration, beagle dog
Procedure: These findings occurred shortly after dosing, were transient in nature, maximal between approximately 1 to 2 hours after dosing, disappearing thereafter. There was a large interindividual variation in this response, with no dose-response relationship. Mechanistic studies to clarify the cause for erythema were not indicative of a histamine-based mechanism of action.

[6] = test system: clinically isolated HIV strain B; assay: Cellular anti-viral assay in MT4-LTR-EGFP cells, mutant strain B; assay type: cell-based; details: Human immunodeficiency virus 1, 72 h, read-out: pEC50 virus strain B (converted)
Procedure: as §1, §2

[7] = test system: clinically isolated HIV strain A; assay: Cellular anti-viral assay in MT4-LTR-EGFP cells, mutant strain A; assay type: cell-based; details: Human immunodeficiency virus 1, 72 h, read-out: pEC50 virus strain A (converted)
Procedure: as §1, §2

beagle dog [8] = assay: Single dose escalation/five day repeat dose toxicology study in beagle dog; assay type: in vivo
Procedure: In a single dose escalation/S day repeat dose dog toxicology study, beagle dogs were treated with compound II according to the current invention at dose levels from 40 up to 144 mg/kg day.

[9] = test system: clinically isolated HIV strain D; assay: Cellular anti-viral assay in MT4-LTR-EGFP cells, mutant strain D; assay type: cell-based; details: Human immunodeficiency virus 1, 72 h, read-out: pEC50 virus strain D (converted)
Procedure: as §1, §2

[10] = test system: wild type laboratory HIV strain (WT IIIB-2-001); assay: Cellular anti-viral assay in MT4-LTR-EGFP cells, wild type strain; assay type: cell-based; details: Human immunodeficiency virus 1, IIIB, 72 h; MT4-LTR-EGFP cells, three days, GFP signal; read-out: pEC50 WT-IIIB-2-001 (converted)
Procedure: The compounds were tested in a cellular assay using the MT4-LTR-EGFP cells for anti-viral activity.
The cellular assay was performed according to the following procedure. HIV- or mock-infected MT4-LTR-EGFP cells were incubated for three days in the presence of various concentrations of the compounds according to the invention. Upon infection, the viral tat protein activates the GFP reporter. At the end of the incubation period, the GFP signal was measured. […] The inhibitory activity of the compound was monitored on the virus-infected cells and was expressed as EC50. These values represent the amount of the compound required to protect 50% of the cells from virus infection.

beagle dog [11] = assay: Oral 3 month dog toxicology study; assay type: in vivo
Procedure: In some cases, these symptoms started as maculate erythema and/or nodular swelling and progressed to diffuse/general erythema and swelling. Signs were predominantly visible in areas with thin/sparse fur including the ears, periorbital region and abdomen. The findings were transient, with maximal severity about one hour after dosing and disappearing or decreasing to lower severity by 4 hours post-administration.

[12] = 10 mg/kg, 10 mg/kg compound II single oral, with Ritonavir 10 mg/kg twice daily
[13] = 10 mg/kg, 10 mg/kg compound II single oral, without Ritonavir
[14] = 40 mg/kg compound II single oral, with Ritonavir 10 mg/kg twice daily
[15] = 40 mg/kg, 40 mg/kg compound II single oral, without Ritonavir

CC(C)CN(C[C@@H](O)[C@H](Cc1ccccc1)NC(=O)O[C@H]1CO[C@H]2OCC[C@H]21)S(=O)(=O)c1ccc2nc(NC3CCN(C4CCCC4)CC3)sc2c1 [Compound 7, (1-benzyl-3-{[2-(1-cyclopentyl-piperidin-4-ylamino)-benzothiazole-6-sulfonyl]-isobutyl-amino}-2-hydroxy-propyl)-carbamic acid hexahydro-furo[2,3-b]furan-3-yl ester]
EC50 [1]: 2.88 µM | AUC ([2]; oral single dose 20 mg/kg, with ritonavir (RTV) coadministration, mean of 4 animals): 7.75 µg·h/mL | AUC ([2]; oral single dose 40 mg/kg, with ritonavir (RTV) coadministration, mean of 4 animals): 23 µg·h/mL | AUC ([2]; oral single dose 80 mg/kg, with ritonavir (RTV) coadministration, mean of 4 animals): 23 µg·h/mL | Cmax Ratio (with/without Ritonavir) ([3]; 10 mg/kg compound II): 7.1 | Relative bioavailability Frel (AUC0-inf with vs without Ritonavir) ([3]; 10 mg/kg compound II): 1378% | Cmax Ratio (with/without Ritonavir) ([3]; 40 mg/kg compound II): 3.6 | Relative bioavailability Frel (AUC0-inf with vs without Ritonavir) ([3]; 40 mg/kg compound II): 1083% | increase of AUC in the presence of ritonavir ([3]; 10 and 40 mg/kg compound II): over 10 fold | increase of Cmax in the presence of ritonavir ([3]; 10 and 40 mg/kg compound II): 4 to 7 fold | AUC(0-inf) [3, 12]: 4.37 µg·h/mL | Cmax [3, 12]: 0.879 µg/mL | AUC(0-inf) [3, 13]: 0.33 µg·h/mL | Cmax [3, 13]: 0.123 µg/mL | AUC(0-inf) [3, 14]: 23.6 µg·h/mL | Cmax [3, 14]: 4.22 µg/mL | AUC(0-inf) [3, 15]: 2.29 µg·h/mL | Cmax [3, 15]: 1.19 µg/mL | total plasma exposure (AUC) and peak plasma concentrations (Cmax) after co-administration with ritonavir ([3]; twice-daily dosing of 10 mg/kg ritonavir, in words): markedly increased | Erythema/edema (Beagle dogs [4]; oral single dose 20 mg/kg, with ritonavir (RTV) coadministration): No | Erythema/edema (Beagle dogs [4]; oral single dose 40 mg/kg, with ritonavir (RTV) coadministration): No | Erythema/edema (Beagle dogs [4]; oral single dose 80 mg/kg, with ritonavir (RTV) coadministration): No | induction of erythema and/or edema (Beagle dogs [4]): did not induce erythema and/or edema | Erythema/edema (Beagle dogs [5]; 1-month study, dose levels 5, 20 and 40 mg/kg/day): neither erythema nor edema was noted | erythema and edema after oral administration (Beagle dogs [5]): did not induce erythema and/or edema | EC50 [6]: 0.02 µM | EC50 [7]: 0.0117 µM | edema or erythema (beagle dog [8]; dose levels from 40 up to 144 mg/kg day): No evidence of edema or erythema | EC50 [9]: 0.0135 µM | EC50 [10]: 0.0132 µM

CC(C)CN(C[C@@H](O)[C@H](Cc1ccccc1)NC(=O)O[C@H]1CO[C@H]2OCC[C@H]21)S(=O)(=O)c1ccc2nc(NCCN3CCCC3)sc2c1 [Reference compound having formula (III)]
AUC ([2]; oral, single dose 10 mg/kg, absence of booster, range): 0.047 to 0.238 µg·h/mL | AUC ([2]; oral, single dose 40 mg/kg, absence of booster, range): 3.32 to 5.09 µg·h/mL | AUC ([2]; oral, single dose 80 mg/kg, absence of booster, range): 7.37 to 16 µg·h/mL | AUC ([2]; oral, single dose 120 mg/kg, absence of booster, range): 10.2 to 27.5 µg·h/mL | erythema or edema (beagle dog [11]; 10 mg/kg/day): No erythema or edema was observed | erythema (beagle dog [11]; 40 mg/kg/day, after 5 weeks of treatment): one of four males dosed at 40 mg/kg/day exhibited general erythema | erythema of the skin and swelling (beagle dog [11]; 120 mg/kg/day, majority of the animals, entire treatment period): slight to severe erythema of the skin, accompanied by swelling | time after dosing of maximal severity of erythema/swelling (beagle dog [11]; 3 month study, transient findings): about one | Erythema/edema (Beagle dogs [4]; single dose 10 mg/kg, absence of booster): No | Erythema/edema (Beagle dogs [4]; single dose 40 mg/kg, absence of booster): No | Erythema/edema (Beagle dogs [4]; single dose 80 mg/kg, absence of booster): Yes | Erythema/edema (Beagle dogs [4]; single dose 120 mg/kg, absence of booster): Yes | induction of erythema and/or edema (Beagle dogs [4]): did induce these clinical signs | redness of the skin (erythema) (Beagle dogs [5]; 28 day study, all dose levels (40, 80, 120 mg/kg/day), most animals): slight to severe redness of the skin | onset of erythema symptoms (Beagle dogs [5]; 28 day study, dose levels 80 and 120 mg/kg/day): present from the start of the study | onset of erythema symptoms (Beagle dogs [5]; 28 day study, low dose level 40 mg/kg/day): third week | swelling (edema) accompanying erythema (Beagle dogs [5]; 28 day study, head, flews, eyes and/or ears, most cases): accompanied by swelling (edema) | time after dosing of maximal erythema/edema findings (Beagle dogs [5]; 28 day study, transient findings): 1 to 2 h | erythema and edema after oral administration (Beagle dogs [5]): produced erythema and edema | erythema (beagle dog [8]; high dose level 80 mg/kg/day, after five consecutive days of treatment): exhibited general erythema
